One assay concerns HT1080 cells. The experiment in a line: Tumor cell apoptosis / viability (MTT). Type of assay: cell-based, human. The source says:
(§1) Cell viability was examined employing 3-(4,5-dimethylthiazol-2-yl)-2,5-diphenyl tetrazolium bromide (MTT) (Cabello et al. Int. J. Oncol. 23, 697-704 (2003)).

The next assay concerns T24 cells. The experiment in a line: Tumor cell apoptosis / viability (MTT). The format is cell-based, human.
Excerpt: as §1

For a further assay, the target named is Rac1 (Homo sapiens, UniProt P63000). The experiment in a line: Co-IP ESI-MS of thioguanine nucleotide disulfide adduct in T cells. The format is cell-based. The settings on record: for thioguanine nucleotide-Rac1 disulfide adduct: activated T cells, FIGS. 21, 27. Further details: endogenous in cells. The procedure: FIG. 21. Detection of 6-TGNP adduct from A7r5 and T cells. Experimental procedures using A7r5 (A and B) and T (C and D) cells, respectively, were identical to those of the experiments described in FIG. 19 and previous studies (Tiede et al. J. Clin. Invest. 111, 1133-1145 (2003); and Poppe et al. J. Immunol. 176, 640-651 (2006)). The cell extract was incubated with a monoclonal RhoA antibody (A and B) or a Rac1 antibody (C and D) coupled with resin. Resin was collected by centrifugation (5,000×g, 10 min), which was suspended in 50% methanol:0.1% formic acid. The protein portion was separated by brief centrifugation (3,000×g for 5 min), resuspended in a buffer containing 10 mM EDTA and 5 mM phosphate (pH 7.5), digested with trypsin for 10 h, and analyzed with MS. The MS peak at 1476.6 Da represents peptide-6-TGDP adduct; TC^20LLIVFSK-6-TGDP.
FIG. 27. Detection of 8-TGNP adduct from T and A7r5 cells. […] The indicated MS peak at 1476.6 Da represents peptide-8-TGDP adduct; TC^20LLIVFSK-8-TGDP (SEQ ID NO:4). The molecular weight of the peptide-8-TGDP adduct is exactly the same as that of the peptide-6-TGDP adduct.

The next assay deals with RhoC (Homo sapiens, UniProt P08134). The assay is described as follows: Guanine nucleotide exchange of [3H]GDP-loaded GTPase with 6-TGDP (FIG. 13A). The format is binding. Also on record: made in house; host or cells: E. coli. The procedure: FIG. 13. Guanine nucleotide exchange of small GTPases with 6-TGDP. (A) To monitor 6-TGDP-mediated GTPase GDP dissociation, [^3H]GDP-loaded GTPase (1 μM) was incubated with 6-TGDP (0-2000 μM) for 1 h. (B) To monitor GTPase 6-TGDP dissociation by GDP (0-2000 μM) in the presence and absence of dithiothreitol (DTT), 6-TGDP-loaded GTPase (˜1 μM) was treated with .NO2 (˜3 μM) under anaerobic conditions and was incubated with various concentrations of [^3H]GDP (0-2000 μM) in the presence and absence of DTT (10 mM) for 1 h. For all assays, aliquots were withdrawn and spotted onto nitrocellulose filters. The filters were then washed three times with an assay buffer, and radioactivity was determined using a Beckman-Coulter scintillation counter. The resultant radioactivity (dpm) values associated with GTPase-bound [^3H]GDP were converted into the fraction of mol nucleotide per mol total GTPase. The data presented represent mean and standard error values from triplicate measurements. The apparent dissociation constants (appKD values) of GTPase 6-TGDP association ([^3H]GDP dissociation, A); and 6-TGDP dissociation ([3H]GDP association, B) were obtained by fitting the data to a simple dissociation and association, respectively. (A) The ^appKD values of Ras, RhoC, RhoA and Rac1 for 6-TGDP, are, respectively, 2300, 230, 224, and 245 μM [6-TGDP]. (B) The appKD values of RhoC with and without DTT are, respectively, 560, and 1000 μM [[^3H]GDP], whereas the ^appKD values of Ras with and without DTT are 530, and 520 μM [[^3H]GDP], respectively. The standard errors of each ^appKD value are less than 10% of their given values, and regression values associated with the fit were r^2>0.9560.
A kinetic assay method using radiolabeled GDP ([^3H]GDP) was established. The apparent dissociation constants (^appKD 6-TGDP) of Rho GTPases (including RhoA, Cdc42, and Rac1/2/3) and Ras with 6-TGDP were determined (FIG. 13). The results of this preliminary kinetic study provided strong support for the mechanism proposed for the role of 6-TGNP in RhoC inactivation (FIG. 7).
The true dissociation constant (^trueKD 6-TGDP) of Ras, RhoC, RhoA and Rac1 for 6-TGDP was then calculated to be ˜20.7 pM, 212 μM, 208 μM, and 158 μM [6-TGDP] by using a compensation equation, ^trueKD 6-TGDP=^appKD 6-TGDP/(1+[GDP]/^trueKD GDP) (95), in conjunction with the values given [(^appKD 6-TGDP of Ras, RhoC, RhoA, and Rac1=2300, 230, 224, and 245 μM (FIG. 13) and ^trueKD GDP=9 pM, 12 μM, 13 μM and 1.8 μM, respectively. The ^trueKD GDP of Ras, RhoA and Rac1 was determined previously (Lenzen et al. Biochemistry 37, 7420-7430 (1998); Heo et al. Biochemistry 44, 6573-6585 (2005)) and the ^trueKD GDP of RhoC was further determined. Example: ^trueKD 6-TGDP for Ras=2300 μM/(1+1 μM GDP/[…])=[…] [6-TGDP]].

[1] abbreviates: 8-TG 1 μM with NO donor (DETA/NO or GSNO 10 μM), not shown.
The mark [2] stands for this setting: 6-TG 1 μM every 48 h with DETA/NO or GSNO 10 μM, longer than ~10 days.

pKd: −log10 of the molar value. Where two headings read alike, the source gives them in different places.

RhoC, sequence (P08134 whole entry): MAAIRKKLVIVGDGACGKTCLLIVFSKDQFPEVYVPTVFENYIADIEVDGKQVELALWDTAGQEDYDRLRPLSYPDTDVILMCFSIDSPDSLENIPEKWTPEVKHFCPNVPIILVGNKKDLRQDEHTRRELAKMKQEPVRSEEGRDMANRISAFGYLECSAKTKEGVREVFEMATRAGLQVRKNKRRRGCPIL

For the compound `Nc1nc2[nH]c(S)nc2c(=O)[nH]1` [8-TG, 2-amino-8-mercapto-1H-purin-6(9H)-one], the “viability and anchorage-independent growth” value in the assay on HT1080 cells (setting [1]) and in the assay on T24 cells (setting [1]) was “did not affect” each time. In addition, the “thioguanine nucleotide-Rac1 disulfide adduct” value at Rac1 is “biologically inactive 8-TGNP-Rac1 disulfide adduct”.
As to `Nc1nc2c(ncn2[C@@H]2O[C@H](COP(=O)(O)OP(=O)(O)O)[C@@H](O)[C@H]2O)c(=O)[nH]1` [GDP], on RhoC (further determined (Example 2), read-out: trueKD GDP), the pKd is 4.92.
Turning to `Nc1nc2nc[nH]c2c(=S)[nH]1` [6-TG, 6-thioguanine], the “viability of 6-TG-resisting cells” value in the assay with HT1080 cells (setting [2]) and in the assay with T24 cells (setting [2]) was “decrease in the viability” in each case. Also, the “apoptosis within a day” value in the assay with HT1080 cells (6-TG 1 μM, not shown) is “most cells underwent apoptosis”; in the assay with T24 cells (6-TG 1 μM, not shown), “most cells underwent apoptosis”. The “initial cells that resisted additional treatment” value is given as about 20% with HT1080 cells (6-TG 1 μM, not shown) and about 20% with T24 cells (6-TG 1 μM, not shown). The “MS peak representing 6-TGNP-Rac1 adduct” value at Rac1 (T cells, both 6-TG and NO, intensity not truly quantitative) is listed as “increased”. The “thioguanine nucleotide-Rac1 disulfide adduct” value at Rac1 is given as “has been identified”.
As to `Nc1nc2c(ncn2[C@@H]2O[C@H](COP(=O)(O)OP(=O)(O)O)[C@@H](O)[C@H]2O)c(=S)[nH]1` [6-TGDP, 6-thioguanosine diphosphate], the pKd at RhoC ([3H]GDP-loaded GTPase 1 μM, 6-TGDP 0-2000 μM, 1 h, FIG. 13A, read-out: appKD for 6-TGDP) was 3.64; at RhoC (calculated by compensation equation from appKD 6-TGDP and trueKD GDP, read-out: trueKD 6-TGDP), 3.67.

Source of the values: patent publication US8729047B2, “Compositions for inhibiting redox-sensitive GTPases” (Board of Regents, The University of Texas System, priority 2010, dated 2014).
